Test results taken from patent EP1210948B1, “THERAPEUTC PEPTIDE FOR NERVOUS DISEASES” (NIPPON CHEMIPHAR CO., LTD., priority 1999, dated 2007).
Where a SMILES comes first, the peptide text is derived from it.

How the values were obtained:
[1] = Toxicity test, subcutaneous injection; format: in vivo
Procedure: pGlu-Asn-Ser-Pro-Arg-Gly-NH2 acetate was subcutaneously injected to a SD strain rat at a dose of 1 mg/kg.

[2] = system: cells of rat cerebral cortex; assay: Action on glutamate-induced neurocyte disorder (in vitro), propidium iodide staining; format: cell-based; details: for inhibitory action against neuronal death induced by glutamate: 4 day treatment, glutamate 1 mM
Procedure: The cerebral cortex of rat (0-day-old) was incubated at 37°C in a Hank's solution containing 1.5 mg/mL of dispase, and then cells were isolated. The neurocytes were dispersed on a poly-L-lysine-coated multiple well plate at a density of approx. 4 x 10^4 cells/cm^2, and then to the plate was added cytosine-β-arabinofuranoside (20 µM). The nerocytes were cultured on the plate for 4 days.
The nerocytes were identified by indirect fluorescent method using a neuro-filament antibody
The cultured neurocytes were washed with a Hank's solution and further incubated at 37°C for 30 minutes under atmospheric conditions. Incubated neurocytes were again incubated for 10 minutes in a Hank's solution containing glutamate. Then, they were washed, and further incubated for one hour. At 15 minutes before the incubation was complete, propidium iodide (4.6 µg/mL) was added. After the incubations were complete, the incubated neurocytes were washed with PBS (phosphate buffer solution containing sodium chloride), and then observed using fluorescence microscope.
The pGlu-Asn-Ser-Pro-Arg-Gly-NH2 acetate or AVP(4-9) was added to the 4 day-cultured solution prior to the glutamate treatment.

Compound: N=C(N)NCCC[C@H](NC(=O)[C@@H]1CCCN1C(=O)[C@H](CO)NC(=O)[C@H](CC(N)=O)NC(=O)[C@@H]1CCC(=O)N1)C(=O)NCC(N)=O [pGlu-Asn-Ser-Pro-Arg-Gly-NH2] (HELM PEPTIDE1{[Glp].N.S.P.R.G.[am]}$$$$V2.0)
- toxicity in the conventional toxicity test ([1]; summary statement): no specific toxicity

Compound: N=C(N)NCCC[C@H](NC(=O)[C@@H]1CCCN1C(=O)[C@H](CO)NC(=O)[C@H](CC(N)=O)NC(=O)[C@@H]1CCC(=O)N1)C(=O)NCC(N)=O [pGlu-Asn-Ser-Pro-Arg-Gly-NH2 acetate] (HELM PEPTIDE1{[Glp].N.S.P.R.G.[am]}$$$$V2.0)
- changes observed after subcutaneous injection ([1]; rat, in vivo, sc, 1 mg/kg): No noticeable changes were observed
- inhibitory action against neuronal death induced by glutamate ([2]; 0.1 nM test substance): showed an inhibitory action
- inhibitory action against neuronal death induced by glutamate ([2]; 1 nM test substance): showed an inhibitory action
- inhibitory action against glutamate toxicity in the presence of V1 receptor antagonist [Pmp^1, Tyr(Me)^2]AVP ([2]; [Pmp^1, Tyr(Me)^2]AVP 0.1 nM): reduced
- inhibitory action against glutamate toxicity in the presence of V1 receptor antagonist [Pmp^1, Tyr(Me)^2]AVP ([2]; [Pmp^1, Tyr(Me)^2]AVP 1 nM): reduced

Compound: [pGlu^4, Cyt^5] AVP (4-9) [AVP(4-9), reference compound]
- inhibition of the glutamate-induced neuronal death ([2]; 1 µM test substance): inhibited
- inhibition of the glutamate-induced neuronal death ([2]; 10 µM test substance): inhibited
